Data: US20230053437A1, “LIPID COMPOUNDS AND LIPID NANOPARTICLE COMPOSITIONS” (Suzhou Abogen Biosciences Co., Ltd., priority 2020, published 2023)

Columns and labels:
Format in all cases: physicochemical
[1] = Encapsulation efficiency of lipid nanoparticles, Quant-it Ribogreen RNA quantification assay; conditions: LNP with hEPO mRNA
Experimental: (§1) Briefly, a cationic lipid provided herein, DSPC, cholesterol, and PEG-lipid were solubilized in ethanol at a molar ratio of 50:10:38.5:1.5, and mRNA were diluted in 10 to 50 mM citrate buffer, pH=4. The LNPs were prepared at a total lipid to mRNA weight ratio of approximately 10:1 to 30:1 by mixing the ethanolic lipid solution with the aqueous mRNA solution at a volume ratio of 1:3 using a microfluidic apparatus, total flow rate ranging from 9-30 mL/min. Ethanol were thereby removed and replaced by DPBS using dialysis. Finally, the lipid nanoparticles were filtered through a […] sterile filter.
(§2) Lipid nanoparticle size were determined by dynamic light scattering using a Malvern Zetasizer Nano ZS (Malvern UK) using a 173° backscatter detection mode. The encapsulation efficiency of lipid nanoparticles were determined using a Quant-it Ribogreen RNA quantification assay kit (Thermo Fisher Scientific, UK) according to the manufacturer's instructions.

[2] = Lipid nanoparticle size by dynamic light scattering (Malvern Zetasizer Nano ZS); conditions: LNP: cationic lipid/DSPC/cholesterol/PEG-lipid 50:10:38.5:1.5 with hEPO mRNA
Experimental: as §1, §2

[3] = Apparent pKa of LNP formulations, TNS fluorescence assay; conditions: LNP cationic lipid/DSPC/cholesterol/DMG-PEG 50/10/38.5/1.5 mol %, pH 3 to 9
Experimental: As reported in literature, the apparent pKa of LNP formulations correlates with the delivery efficiency of LNPs for nucleic acids in vivo. The apparent pKa of each formulation was determined using an assay based on fluorescence of 2-(p-toluidino)-6-napthalene sulfonic acid (TNS). LNP formulations comprising of cationic lipid/DSPC/cholesterol/DMG-PEG (50/10/38.5/1.5 mol %) in PBS were prepared as described above. TNS was prepared as a 300 uM stock solution in distilled water. LNP formulations were diluted to 0.1 mg/ml total lipid in 3 mL of buffered solutions containing 50 mM sodium citrate, 50 mM sodium phosphate, 50 mM sodium borate, and 30 mM sodium chloride where the pH ranged from 3 to 9. An aliquot of the TNS solution was added to give a final concentration of 0.1 mg/ml and following vortex mixing fluorescence intensity was measured at room temperature in a Molecular Devices Spectramax iD3 spectrometer using excitation and mission wavelengths of 325 nm and 435 nm. A sigmoidal best fit analysis was applied to the fluorescence data and the pKa value was measured as the pH giving rise to half-maximal fluorescent intensity.

SMILES	Encapsulation Efficiency [1] [%]	polydispersity [2]	size (nm) [2] [nm]	Apparant Pka [3]
CCCCCCCCC(CCCCCC)COC(=O)CCCCCC(=O)OCC1(COC(=O)CCCCCC(=O)OCC(CCCCCC)CCCCCCCC)CCN(C(=O)CCCN(C)C)CC1 (stereo not drawn) [Compound 52]	100.4	0.47	107.3	6.20
CCCCCCCCCCCCCCCC(=O)OCC1(COC(=O)CCCCCCCCCCCCCCC)CCN(C(=O)CCN(CCCCCC)CCCCCC)CC1 [Compound 34]	74.0	0.127	110.4	5.90
CCCCCCCCCCCC(=O)OCC1(COC(=O)CCCCCCCCCCC)CCN(C(=O)CCN(CCC)CCO)CC1 [Compound 22]	93.9	0.252	56.79	7.76
CCCCCCCCCCCC(=O)OCC1(COC(=O)CCCCCCCCCCC)CCN(CCCCCO)CC1 [Compound 20]	92.6	0.161	81.62	8.23
CCCCCCCCC(CCCCCC)COC(=O)CCCCCC(=O)OCC1(COC(=O)CCCCCC(=O)OCC(CCCCCC)CCCCCCCC)CCN(C(=O)CCN(C)CCO)CC1 (stereo not drawn) [Compound 56]	101.1	0.284	83.06	11.73
CCCCCCCCCCCC(=O)OCC1(COC(=O)CCCCCCCCCCC)CCN(CCO)CC1 [Compound 1]	98.8	0.096	58.53	7.30
CCCCCCCCCC(=O)OCC1(COC(=O)CCCCCCCCC)CCN(C(=O)CCN(CCCCCC)CCCCCC)CC1 [Compound 32]	88.2	0.13	93.36	6.34
CCCCCCCCCCCC(=O)OCC1(COC(=O)CCCCCCCCCCC)CCN(C(=O)CCN2CCOCC2)CC1 [Compound 10]	82.5	0.135	67.82	6.81
CCCCCCCCCCCC(=O)OCC1(COC(=O)CCCCCCCCCCC)CCN(C(=O)CCN(C)CCCn2ccc(=O)[nH]c2=O)CC1 [Compound 13]	95.5	0.127	57.44	7.09
CCCCCCCCC(CCCCCC)COC(=O)CCCCCC(=O)OCC1(COC(=O)CCCCCC(=O)OCC(CCCCCC)CCCCCCCC)CCN(C(=O)CCN(C)C)CC1 (stereo not drawn) [Compound 51]	101.7	0.424	103.3	7.46
CCCCCCCCCCCCCC(=O)OCC1(COC(=O)CCCCCCCCCCCCC)CCN(C(=O)CCN(CCCCCC)CCCCCC)CC1 [Compound 33]	89.9	0.106	87.01	6.06
CCCCCCCCCCCC(=O)OCC1(COC(=O)CCCCCCCCCCC)CCN(C(=O)CCCN2CCCCCC2)CC1 [Compound 41]	96.1	0.15	90.15	~12.82
CCCCCCCCCCCC(=O)OCC1(COC(=O)CCCCCCCCCCC)CCN(C(=O)CCN2CCCC2)CC1 [Compound 5]	95.4	0.112	69.83	7.67
CCCCCCCCCCCC(=O)OCC1(COC(=O)CCCCCCCCCCC)CCN(C(=O)CCN(CCO)CCCC)CC1 [Compound 24]	93.6	0.165	71.61	7.98
CCCCCCCCCCCC(=O)OCC1(COC(=O)CCCCCCCCCCC)CCN(C(=O)CCN2CCCCCCC2)CC1 [Compound 8]	91.6	0.227	74.14	7.58
CCCCCCCCCCCC(=O)OCC1(COC(=O)CCCCCCCCCCC)CCN(C(=O)CCCN2CCCCCCC2)CC1 [Compound 42]	96.1	0.298	78.03	7.45
CCCCCCCCCCCC(=O)OCC1(COC(=O)CCCCCCCCCCC)CCN(C(=O)CCCN2CCCC2)CC1 [Compound 39]	97.0	0.42	89.41	13.20
CCCCCCCCCCCC(=O)OCC1(COC(=O)CCCCCCCCCCC)CCN(C(=O)CCCN2CCCCC2)CC1 [Compound 40]	92.4	0.066	84.7	9.27
CCCCCCCCCCCC(=O)OCC1(COC(=O)CCCCCCCCCCC)CCN(C(=O)CCN(CCO)C(C)C)CC1 [Compound 23]	93.0	0.078	77.29	7.68
CCCCCCCC(=O)OCC1(COC(=O)CCCCCCC)CCN(CCO)CC1 [Compound 62]	94.6	0.122	120.8	6.972
CCCCCCCCCCCC(=O)OCC1(COCCCCCCCC(=O)OC(CCCCCCCC)CCCCCCCC)CCN(C(=O)CCN(C)C)CC1 [Compound 61]	99.7	0.2	54.56	7.65
CCCCCCCCCCCC(=O)OCC1(COC(=O)CCCCCCCCCCC)CCN(C(=O)CCN(CC)CCO)CC1 [Compound 3]	96.4	0.165	64.67	7.58
CCCCCCCCCCCC(=O)OCC1(COC(=O)CCCCCCCCCCC)CCN(C(=O)CCN(CCO)CCCCCC)CC1 [Compound 26]	89.7	0.138	91.83	7.57
CCCCCCCCCCCC(=O)OCC1(COC(=O)CCCCCCCCCCC)CCN(C(=O)CCCN(CCC)CCO)CC1 [Compound 36]	93.2	0.095	67.83	7.84
